A short description of this data set: Solubility test of BM-DBM. The settings on record: 1 g BM-DBM mixed with 2 g additive, dissolved at 140° C., cooled to room temperature for 30 min. It is filed as physicochemical. The procedure:
1 g of BM-DBM was mixed with 2 g of an additive, dissolved at 140° C., then the mixture was cooled to room temperature for 30 min and its state was observed.

Molecules are shown by their SMILES.

`CCCCCCCCCCCC(=O)OCCCCCC` [Hexyl laurate]: the “Solubility of BM-DBM” value is “◯” and the “solubility of BM-DBM (in words)” value was “particularly good solubility of BM-DBM”.
